Reference: publication PMC11274654 (Biomedicines, 2024)
Where two headings read alike, the source gives them in different places.

Experiments:
[1] = tested on: bone regeneration at the callus site in OVX rats; test: Femur osteotomy model in osteopenic OVX rats, oral MTZ; format: in vivo, ovariectomized osteopenic SD rats; conditions: 235 mg/kg oral, 12 days
Protocol: (§1) Femur osteotomy was carried out in adult female Sprague Dawley (SD) rats (200 ± 20 g, 3 months old) and 3-month post-ovariectomized osteopenic SD rats (280 ± 20 g, 6 months old) by inserting a drill bit with a diameter of 0.8 mm from the anterior to the posterior mid-diaphysis of the right femur.
(§2) The human equivalent dose for rats is 235 mg/kg; half of this amount, 117 mg/kg, was used for the study. Doses of MTZ (117 mg/kg and 235 mg/kg) were administered daily by the oral route for 12 days. For the formulation study, MTZ@In situ gel and unformulated MTZ were administered every 3 days (total of 4 injections) for a period of 12 days via the subcutaneous route in the osteotomy animal. Each rat received 20 mg/kg, s.c. of bone-seeking fluorochrome calcein 24 h before sacrifice in order to evaluate the new bone formation at the fractured callus.
(§3) A SkyScan 1076 μCT scanner (SkyScan, Ltd., Kartuizersweg, Kontich, Belgium) was used to perform a high-resolution μCT for the two-dimensional and three-dimensional assessment of excised bones. The rat bone scanning process used an isotropic voxel pixel size of 18 μm and an X-ray source of 70 kV and […]. Utilizing the SkyScan Nrecon software (Version: 1.7.0.4), cross-sectional reconstruction was performed. […] The Batman software (Version: 1.16.8.0+), with trabecular (3D) bone analysis programs was used for quantification.

[2] = tested on: bone regeneration at the femur osteotomy site; test: Femur osteotomy model, oral MTZ; format: in vivo, Sprague Dawley rats; conditions: 117 mg/kg and 235 mg/kg oral daily, 12 days
Protocol: as §1, §2, §3

[3] = Pharmacokinetic study, s.c., plasma LC-MS/MS; format: in vivo; conditions: rats, 40 mg/rat s.c.
Protocol: Mass spectrometric detections were carried out using an AB Sciex 4000 QTRAP LC-MS/MS, Redwood City, CA, USA) instrument fitted with an electrospray ionization source. Separation was conducted through X Bridge^TM Shield RP 18 (Waters, MA, USA) (5 µm, 4.6 × 50 mm) column. […] The ion spray voltage was set at 4500 V. […] The MS was operated in the ESI positive-ion mode, and the detection of the ions was performed in the multiple reaction monitoring (MRM) mode, monitoring the transition of m/z 172.06 precursor ion [M + H]+ to the m/z 128.08 product ion for IS and m/z 236.95 precursor ion [M + H]+ to the m/z 194.04 product ion for compound, respectively. After overnight fasting, the animals were divided into two groups (n = 4) based on the treatment: […] An MTZ suspension was prepared in water. Blood samples were collected at predetermined time points (0.25 to 48 h). […] To extract MTZ from plasma samples, the protein precipitation method was used. In this method, plasma samples (50 μL) were taken (50 ng/mL of carbamazepine (CBZ) as the internal standard) and vortexed at 2000 rpm for 10 min. Subsequently, the samples were centrifuged at 10,000 rpm for 10 min. The supernatant (100 µL) was taken for LC-MS/MS analysis. Data acquisition and quantitation were performed using analyst software. The PK parameters were determined using the Phoenix™ 6.3 WinNonlin (Pharsight Corporation, Mountain View, CA, USA) software as a noncompartmental model approach.

[4] = In vitro MTZ release in PBS and release kinetics models; format: physicochemical; parameters: Hixson–Crowell kHC / Zero-order K0 / First-order K1 / Higuchi kH: unit not given here; conditions: in PBS
Protocol: To evaluate the release kinetics profile of MTZ, a formulation containing 10 mg equivalent of MTZ was injected into 200 mL of the PBS medium (37 ± 0.5 °C) using a 20-gauge needle. The formulation immediately turned into a gel upon contact with the dissolution medium. The dissolution vials were placed on a reciprocating bath-shaker and left for continuous shaking throughout the dissolution study. A total of 2 mL of aliquots were withdrawn and replaced with an equal volume of fresh PBS to maintain the sink condition. The dissolution study was conducted for a duration of 24 h. The samples were filtered through a syringe filter (0.22 μm). The MTZ concentrations were analyzed spectrophotometrically (294 nm) after appropriate dilution, with PBS as a blank for background correction. The measured concentrations were presented as the mean ± standard deviation (SD).
To understand the drug release kinetics, data obtained from the release study were fitted into various kinetics models: zero-order, first-order, Higuchi, Korsmeyer–Peppas, and Hixson–Crowell. The DD solver Excel add-in program was utilized to compare and identify the mechanism of drug release.

rat BMSCs (rBMSCs) [5] = test: Nodule mineralization (Alizarin Red S) in rBMSCs; format: cell-based; conditions: 21 days post-treatment, differentiation medium
Protocol: (§4) Rat and mouse BMSCs were seeded at a density of 1 × 10^6 cells/well in a 6-well plate, vehicle or MTZ (1 nM) treatment was conducted, and the media were changed every alternate day for 21 days using a differentiation medium [10% FBS, β-glycerophosphate (10 mM), ascorbic acid (50 µg/mL), and dexamethasone (100 nM) in α-MEM].
(§5) Cells were fixed with 10% formalin for 15 min and stained with Alizarin Red for 1 h after 21 days of culture. Moreover, 10% cetylpyridinium chloride (Sigma #C0732) was used to quantify mineralized nodules at a 595 nm wavelength.

mouse BMSCs (mBMSCs) [6] = test: Nodule mineralization (Alizarin Red S) in mBMSCs; format: cell-based; conditions: 21 days post-treatment, differentiation medium
Protocol: as §4, §5

rat BMSCs (rBMSCs) [7] = test: ALP activity in rat bone marrow stromal cells; format: cell-based; conditions: 1 nM, seven days post-treatment
mouse BMSCs (mBMSCs) [8] = test: ALP activity in mouse bone marrow stromal cells; format: cell-based; conditions: 1 nM, seven days post-treatment

Cc1ncc([N+](=O)[O-])n1CCO [Metronidazole]
Bone volume at the callus site compared to the control group [1]: increased | Calcein intensity at the callus site compared to the control group [1]: increased | Bone volume at the osteotomy site [2]: increased | Calcein intensity at the osteotomy site [2]: increased | MRT ([3]; plasma, sc): 7.63 ± 0.3 h | AUC ([3]; plasma, sc, read-out: Area under the curve (AUC)0–last): 206 ± 7.05 µg·h/mL | Cmax ([3]; plasma, sc, read-out: Maximum concentration (Cmax)): 23000 ± 870 ng/mL | Cl [3]: 13 ± 0.5 mL/min/kg | Vd [3]: 4.91 ± 0.15 L/kg | AUC(0-inf) ([3]; sc, plasma): 206 ± 7.05 µg·h/mL | Tmax ([3]; sc, plasma): 1.75 ± 0.25 h | half-life ([3]; sc, plasma): 4.39 ± 0.26 h | Cmax ([3]; sc, plasma, read-out: Cmax): 23000 ± 870 ng/mL | First-order K1 [4]: 0.08 ± 0.00 | First-order R^2 [4]: 0.84 ± 0.00 | Higuchi R^2 [4]: 0.71 ± 0.00 | Higuchi kH [4]: 16.34 ± 0.12 | Hixson–Crowell R^2 [4]: 0.86 ± 0.01 | Hixson–Crowell kHC [4]: 0.02 ± 0.00 | Korsmeyer–Peppas R^2 [4]: 0.81 ± 0.01 | Korsmeyer–Peppas kKP [4]: 8.64 ± 0.11 | Korsmeyer–Peppas n (release exponent) [4]: 0.78 ± 0.01 | Zero-order K0 [4]: 4.77 ± 0.05 | Zero-order R^2 [4]: 0.76 ± 0.01 | Osteogenic differentiation and mineralized nodule formation (rat BMSCs (rBMSCs) [5]): stimulated | Osteogenic differentiation and mineralized nodule formation (mouse BMSCs (mBMSCs) [6]): stimulated | ALP activity compared to the vehicle group (rat BMSCs (rBMSCs) [7]): increased | ALP activity compared to the vehicle group (mouse BMSCs (mBMSCs) [8]): increased
